Test [1] has as its system DU145 derived subclones. The test can be described thus: Western blot / immunostaining of EMT markers, Src/FAK activation and proliferation markers in DU145 derived subclones. Format: cell-based, human. Conditions: for expression of PCNA: 72 hours. The protocol: (§1) Western blot, Immunoprecipitation and Immunostaining. Cells were grown to 100% confluency and Western blot were performed as described before. Images were quantified with ImageJ software from NIH. Immunoprecipitation studies were performed as described before. α1 NKA immunostaining was performed by growing cells on sterilized coverslips in 6 well tissue culture plates and permeabilization/fixation with ice-cold methanol followed by blocking with 5% horse serum and 0.1% Triton X-100 in 1× Phosphate buffered saline (PBS) for 30 minutes. Coverslips were then stained with an anti-α1 NKA antibody (Millipore, Cat #05-369) at 1:100 dilution in 1% BSA (Bovine Serum Albumin) containing 1×PBS solution for overnight. Next day after three washes, coverslips were stained with Alexa Fluor 488 conjugated anti-mouse secondary antibody (Thermo-Fisher) for 1 hour, washed extensively and then imaged using a fluorescent microscope with GFP filter or confocal microscope (LEICA-DMIRE2). E-cadherin and occludin immunostaining was performed in a similar manner. Phospho-Src, phospho ERK1/2 immunostaining were performed as described before and images were taken with a LEICA DMIRE2 confocal microscope.
Next, it was tested whether MB5 as an inverse agonist of NKA receptor function could reverse EMT and stop invasion of PCa cells by rescuing α1 NKA expression in PCa. Subclone 5 and 2 cells were exposed to a long term treatment (0, 24, 48 and 72 hours) with 100 nM MB5.

Another test relates to PY17 cells. In words: basal ERK phosphorylation in PY17 cells. Format: cell-based, pig. The protocol: as §1, with “microscope. […]” for “microscope.”
The subject of the next test is subclone 2 spheroids. In words: MMP secretion by spheroids (Western blot of conditioned media). Format: cell-based, human. How it is done:
For drug treatment, compound was diluted into media, from stock solution. For MMP secretion, conditioned media for 3 days were collected from top of matrix and assessed for MMP secretion by Western blot using Matrix Remodeling Antibody Sampler kit from Cell Signaling Technology (Cat #73959).
Background: Immunoblotting shows a protein as a band on a membrane.

In test [2] the test system is subclone 4 and 2 xenograft. In words: tumor xenograft of aggressive subclones 4 and 2 in NOD/SCID mice. Format: in vivo, mouse. The protocol: Mice studies. Animal protocols were approved by an Institutional Animal Care and Use Committee (IACUC) according to NIH guidelines. Tumor xenografts were established by subcutaneous injection of 5×10^6 cancer cells into the left and right flanks of 10-week-old male NOD/SCID mice (Charles River). Tumor length (L) and width (W) were measured with calipers weekly and tumor volume was estimated as V=(L×W^2)/2. After the tumor volumes reached approximately 100 mm^3, mice were sacrificed and tumors were harvested. Half of the tumors were used for protein extraction and the other half were digested with collagenase I solution (SIGMA) to isolate cancer cells.
For MB5 treatment, after tumor volume reached approximately 100 mm^3, mice were injected peritoneally with DMSO or MB5 at 20 mg/kg or 10 mg/kg daily and further monitored for tumor growth weekly. At the end of treatment period (about 2-3 weeks), tumors were harvested and tumor lysates were analyzed for protein expression by Western blot.
The therapeutic potential of MB5 in a tumor xenograft model was first tested by injecting DU145 or corresponding α1 knockdown cells (KD) into the right or left flank of 10-week-old NOD/SCID mice. The tumor growth was monitored twice weekly. […] Next, it was determined whether MB5 could decrease tumor growth of highly aggressive subclones derived from DU145. […]

Another test relates to A425P and Y260A cells. In words: basal ERK activation in Src binding mutant Y260A and A425P cells. Format: cell-based, pig. How it is done: Characterization of MB5 activity on the NKA receptor function known as the NKA/Src binary receptor mechanism was conducted in a pig kidney epithelial cells (LLC-PK1)-based platform using immunostaining and Western blot analyses. […] The change of NKA conformation that occurs upon binding of agonists such as ouabain, results in the release and activation of the Src kinase domain from the “Naktide” site of NKA CD3, while the other interaction (constitutive) persists between NKA CD2 and the SH2 domain of Src. […] In LLC-PK1-derived cells with low NKA receptor constitutive activity due to substantial reduction (over 80%) of α1 NKA expression by siRNA (PY17 cells), increased basal Src and ERK activity is observed due to the abnormally high amount of Src kinase that remains in an active conformation. Increased basal Src and ERK activity is also observed in LLC-PK1-derived cells with reduced NKA receptor constitutive activity that result from mutations in either domain of interaction with Src without alteration of the ion pumping activity (e.g. A425P on the Naktide sequence, or Y260A on the CD2 domain).

In another test the test system is PC3 cells. The test can be described thus: Western blot and cell fractionation in PC3 cells. Format: cell-based, human. Particulars: PC3, 72-120 hours of treatment. The protocol: as §1
Another test deals with T1, purified pig kidney NKA (Sus scrofa, UniProt P05024).
T1 construct: Na/K-ATPase activity assay of MB5 with purified pig kidney enzyme; from tissue; host or cells: pig kidney
In words: Na/K-ATPase (ATPase) activity assay. Format: biochemical. How it is done: It is appreciated that ouabain induces Src/ERK activation (increased protein phosphorylation) of LLC-PK1 cells by binding to α1 NKA and thereby initiates a signaling cascade which results in the endocytosis of the α1 NKA to terminate the signaling.
ATPase activity assay. ATPase activity assay was performed as previously described.
As archetypal agonists of NKA receptor function, ouabain and other CTS stimulate cellular signaling by activating α1 NKA/Src signalosome complex, which results in its endocytosis. It was reasoned that compounds that inhibit CTS induced signaling could function as inverse agonists of this signalosome complex and prevent α1 NKA endocytosis. A group of hydroxyxanthones were thus tested that were identified as a new class of Na/K-ATPase ligands using a high throughput in vitro screening platform and a library of 2600 structurally diverse chemicals.

Test [3] addresses T2, α1 NKA/Src receptor complex (Sus scrofa, UniProt P05024).
T2 construct: endogenous in cells; host or cells: LLC-PK1
In words: ouabain-induced Src/ERK activation in LLC-PK1 cells (immunostaining, Western blot). Format: cell-based, pig. How it is done:
as §1
Characterization of MB5 activity on the NKA receptor function known as the NKA/Src binary receptor mechanism was conducted in a pig kidney epithelial cells (LLC-PK1)-based platform using immunostaining and Western blot analyses. […] The change of NKA conformation that occurs upon binding of agonists such as ouabain, results in the release and activation of the Src kinase domain from the “Naktide” site of NKA CD3, while the other interaction (constitutive) persists between NKA CD2 and the SH2 domain of Src. […] In LLC-PK1-derived cells with low NKA receptor constitutive activity due to substantial reduction (over 80%) of α1 NKA expression by siRNA (PY17 cells), increased basal Src and ERK activity is observed due to the abnormally high amount of Src kinase that remains in an active conformation. […]

For test [4], the system named is DU145 derived subclones. In words: Western blot / immunostaining of EMT markers, Src/FAK activation and proliferation markers in DU145 derived subclones. Particulars: subclone 2 cells, 1 μM, 24 hours. Format: cell-based, human.
Setting [5] is: Western blot, 100 nM, up to 72 hours.

Where “and” joins values, the source holds several entries; their conditions need not be identical. Identical values can stand only once. Entries after “also recorded” stand apart in the source; their conditions may differ.

Usually IC50 stands for the concentration that inhibits the measured activity by half. Read a low IC50 as higher potency. Turning to `O=c1c2cccc(O)c2oc2c(O)c(O)ccc12` [MB5], in the test with DU145 derived subclones [1] (100 nM, subclones 5 and 2), the “Src, FAK activation and Myc expression” value is listed as “significant decrease”. Besides, in the test with DU145 derived subclones [1] (setting [5]), the “expression of mesenchymal markers (SNAIL, ZEB1)” value is on record as “downregulating; also recorded: decreased expression of mesenchymal markers”; the “α1 NKA and E-cadherin expression” value was “increasing; also recorded: significant time-dependent increase; also recorded: increased α1 NKA and E-cadherin expression”. Further, the “expression of PCNA” value in the test with DU145 derived subclones [1] (subclone 2, 100 nM) was “significantly reduced”. Further, the “expression of PCNA” value with DU145 derived subclones [1] (subclone 5, 100 nM) was “abolished”. The “basal ERK phosphorylation” value in the test on PY17 cells is reported as “inhibited ERK phosphorylation in a dose-dependent manner”. Further, the “MMP2 and 9 secretion” value with subclone 2 spheroids was “significantly reduced MMP2 and 9 secretions”. In addition, the tumor growth result in [2] (10 mg/kg, subclones 4 and 2) is listed as “significantly reduced tumor growth from both cell types; also recorded: significantly reduced xenografted tumor growth”. Moreover, the “α1 NKA and E-cadherin expression in tumor lysates” value in test [2] (subclone 2 tumor lysates, Western blot) was “increasing α1 NKA and E-cadherin expression”. Moreover, in the test on A425P and Y260A cells, the “basal ERK phosphorylation” value is “did not reduce high levels of ERK phosphorylation”. In addition, in the test with PC3 cells, the EMT phenotype result is listed as “reversed the EMT phenotype”, the Src activation entry is on record as “decreased Src activation” and the “α1 NKA expression” value is reported as “significantly increased α1 NKA expression”. Moreover, the “inhibition of NKA activity” value on purified pig kidney NKA (about 1 nM to 100 nM) is on record as approximately 25%. In addition, at purified pig kidney NKA (biphasic NKA inhibition curve), the “high affinity component, share of Na/K-ATPase activity” value came out at 20%. Also, the half-maximal inhibitory concentration (IC50) at purified pig kidney NKA (purified pig kidney enzyme, low affinity component of biphasic curve) is ~10 µM and 10 µM. At purified pig kidney NKA (~10 μM), the “inhibition of NKA activity” value was approximately 50%. In addition, the “ERK activation / NKA receptor function by the compound alone” value in test [3] (baseline) is “did not activate NKA receptor function under baseline condition; also recorded: did not activate ERK”. Also, the “inhibition of ouabain-induced ERK (and Src) activation” value in [3] (pretreatment before ouabain) was “abolished ouabain-induced ERK activation; also recorded: better efficacy to inhibit ouabain-induced ERK activation than MB7; also recorded: dose-dependently inhibited Src and ERK activation; also recorded: significantly decreased ouabain-induced ERK signal”. Also, in the test on DU145 derived subclones [4], the “E-cadherin and occludin expression (immunostaining)” value is “Increase in E-cadherin and occludin expression”.
